Patent US11958857B1, “5-(1H-indol-3-yl)-1,3-substitutedpyrimido[4,5-d]pyrimidine-2,4,7(1H,3H,8H)-trione as anticancer agents” (KING FAISAL UNIVERSITY, priority 2023, dated 2024)

Legend:
[1] = test system: MCF7 cells (breast cancer); experiment: single dose MTT assay, MCF7; assay type: cell-based; conditions: 10 μM, 48 h, Mean ± SEM of three independent experiments
From the text: (§1) All of the target compounds 5-(1H-indol-3-yl)-1,3-substituted pyrimido[4,5-d]pyrimidine-2,4,7(1H,3H,8H)-trione derivatives (4a-c) were subjected to a single dose MTT (3-(4,5-dimethylthiazol-2-yl)-2,5-diphenyltetrazolium bromide) assay to evaluate their cytotoxicity (growth-inhibiting activities) against the breast cancer (MCF-7, MDA-MB-231), ovarian cancer (A2780, SKOV-3) and cervical cancer (HELA) cell lines. Cell lines were obtained from ATCC (American Type Culture Collection). Doxorubicin was used as a positive control.
(§2) HELA and MCF-7 cells were seeded at 10000 cells/well, while MDA-MB-231, A2780, and SKOV-3 cells were seeded at 20000 cells/well in 96 well plates to ensure that cells were non-confluent and able to proliferate over the course of the assay period. After 24 h in culture, cells were treated with test compounds 5-(1H-indol-3-yl)-1,3-substituted pyrimido[4,5-d]pyrimidine-2,4,7(1H,3H,8H)-trione derivatives (4a-c) at a single dose of 10 μM concentration and incubated for 48 h. Cells were inspected under the microscope to detect any visible morphological changes. Cells were washed with PBS, and then the cells were treated with 100 μl of 1 mg/ml fresh filtered MTT suspended in a culture medium; the plates were covered with aluminum foil and incubated for 45 min. Cell viability was marked by the conversion of MTT to the dark-blue-colored formazan by mitochondrial dehydrogenases. DMSO was added to dissolve the insoluble purple formazan product, and optical density (OD) was measured by using a spectrophotometer at a wavelength of […]. The assay was performed in the dark as MTT is light-sensitive. Control wells of culture medium only (without cells) were included as blanks for absorbance measurements.
(§3) Cell viability was calculated according to the following formula: % Cell viability=(OD sample-OD blank/OD control-OD blank)×100 where the blank is given by wells without cells (medium only), control is untreated cells (100% viable).

[2] = test system: MDA-MB-231 cells (breast cancer); experiment: single dose MTT assay, MDA-MB-231; assay type: cell-based; conditions: 10 μM, 48 h, Mean ± SEM of three independent experiments
From the text: as §1, §2, §3

[3] = test system: HeLa cells (cervical cancer); experiment: single dose MTT assay, HeLa; assay type: cell-based; conditions: 10 μM, 48 h, Mean ± SEM of three independent experiments
From the text: as §1, §2, §3

[4] = test system: A2780 cells (ovarian cancer); experiment: single dose MTT assay, A2780; assay type: cell-based; conditions: 10 μM, 48 h, Mean ± SEM of three independent experiments
From the text: as §1, §2, §3

[5] = test system: SKOV3 cells (ovarian cancer); experiment: single dose MTT assay, SKOV3; assay type: cell-based; conditions: 10 μM, 48 h, Mean ± SEM of three independent experiments
From the text: as §1, §2, §3

Row | melting point [°C] | Structure (SMILES) | Anticancer effect on cancer cell lines MCF7 (proliferation percentage) [1] | Anticancer effect on cancer cell lines MDA-MB-231 (proliferation percentage) [2] | Anticancer effect on cancer cell lines HeLa (proliferation percentage) [3] | Anticancer effect on cancer cell lines A2780 (proliferation percentage) [4] | Anticancer effect on cancer cell lines SKOV3 (proliferation percentage) [5]
1 | 256 to 258 | Cn1c(=O)c2c(-c3c[nH]c4ccccc34)nc(=O)[nH]c2n(C)c1=O [Compound 4c, 5-(1H-Indol-3-Yl)-1,3-Dimethylpyrimido[4,5-d]Pyrimidine-2,4,7(1H,3H,8H)-Trione] | 44 ± 3.90 | 62 ± 1.35 | 19 ± 1.58 | 63 ± 1.47 | 57 ± 3.40
2 | 160 to 162 | O=c1nc(-c2c[nH]c3ccccc23)c2c(=O)[nH]c(=O)[nH]c2[nH]1 [Compound 4a, 5-(1H-Indol-3-Yl)Pyrimido[4,5-d]Pyrimidine-2,4,7(1H,3H,8H)-Trione] | 98 ± 3.15 | 82 ± 1.01 | 57 ± 6.13 | 78 ± 3.60 | 79 ± 0.92
3 | 180 to 182 | O=c1nc(-c2c[nH]c3ccccc23)c2c(=O)[nH]c(=S)[nH]c2[nH]1 [Compound 4b, 4-(1H-Indol-3-Yl)-7-Thioxo-7,8-Dihydropyrimido[4,5-d]Pyrimidine-2,5(1H,6H)-Dione] | 68 ± 4.57 | 61 ± 6.00 | 59 ± 2.91 | 82 ± 4.05 | 69 ± 1.31
